Values joined by “and” are separate entries in the source; they are usually repeats but may differ in a detail not shown here. Equal entries are not always repeated.
How the values were obtained:
[1] = test system: epithelial cancer cell line (A-549); assay: Antiproliferative MTT assay, A-549; assay type: cell-based; conditions: Homo sapiens, A549; A-549, MTT; read-out: Antiproliferative Activity IC50 ± SEM A-549
Source text: (§1) Using the MTT assay with doxorubicin as the reference drug, the antiproliferative activities of 5a–k, 6a–c, and 7 against four human cancer cell lines, including pancreas cancer cell line (Panc-1), breast cancer cell line (MCF-7), colon cancer cell line (HT-29), and epithelial cancer cell line (A-549) were investigated.

[2] = test system: breast cancer cell line (MCF-7); assay: Antiproliferative MTT assay, MCF-7; assay type: cell-based; conditions: Homo sapiens, MCF7; MCF-7, MTT; read-out: Antiproliferative Activity IC50 ± SEM MCF-7
Source text: as §1

[3] = test system: pancreas cancer cell line (Panc-1); assay: Antiproliferative MTT assay, Panc-1; assay type: cell-based; conditions: Homo sapiens; Panc-1, MTT; read-out: Antiproliferative Activity IC50 ± SEM Panc-1
Source text: as §1

[4] = test system: four human cancer cell lines (Panc-1, MCF-7, HT-29, A-549); assay: Antiproliferative MTT assay, average of four cancer cell lines (mean GI50); assay type: cell-based; conditions: for IC50: Homo sapiens, average of A-549, MCF-7, Panc-1, HT-29, read-out: Antiproliferative Activity IC50 Average (GI50 against the four cell lines); for fold less potent than 5e (mean GI50): ratio of mean GI50 vs compound 5e
[5] = test system: colon cancer cell line (HT-29); assay: Antiproliferative MTT assay, HT-29; assay type: cell-based; conditions: Homo sapiens; HT-29, MTT; read-out: Antiproliferative Activity IC50 ± SEM HT-29
Source text: as §1

[6] = Cell viability assay (MTT) on MCF-10A cells; assay type: cell-based; conditions: human, MCF-10A mammary gland epithelial cells
Description: (§2) The MCF-10A (human mammary gland epithelial) cell line was used in the cell viability experiment. Compounds 5a–k, 6a–c, and 7 were incubated with MCF-10A cells for 4 days at 50 µM concentration, and the viability of cells was determined using the 3-(4,5-dimethylthiazol-2-yl)-2,5-diphenyltetrazolium bromide (MTT) test.. All compounds had no cytotoxic effects, and the vitality of the cells was more than 83% for most of the compounds examined.
as §2, with “test.” for “test.. All compounds had no cytotoxic effects, and the vitality of the cells was more than 83% for most of the compounds examined.”

EGFR = EGFR (Homo sapiens, UniProt P00533); assay: EGFR-TK inhibitory assay; assay type: biochemical; conditions: read-out: EGFR Inhibition IC50 ± SEM
CDK2 enzyme = CDK2 enzyme (Homo sapiens, UniProt P24941); assay: CDK2 inhibitory assay
[7] = test system: Caspase-3 in MCF-7 breast cancer cell line; assay: Caspase-3 level in MCF-7 cells
[8] = test system: Cytochrome C in MCF-7 human breast cancer cell line; assay: Cytochrome C assay in MCF-7 cells; assay type: cell-based
Description: The quantity of cytochrome C within the cell is important for activating caspases and commencing the intrinsic apoptosis process. […] The findings add to the evidence that apoptosis can be attributed to Cytochrome C overexpression and activation of the intrinsic apoptotic pathway triggered by the investigated compounds.
Indole-2-carboxamide derivatives 5d, 5e, and 5h were evaluated as Cytochrome C activators in the MCF-7 human breast cancer cell line.

[9] = test system: Caspase-9 in MCF-7 breast cancer cell line; assay: Caspase-9 level in MCF-7 cells; assay type: cell-based, human
[10] = test system: Caspase-8 in MCF-7 breast cancer cell line; assay: Caspase-8 level in MCF-7 cells; assay type: cell-based, human
p53 in MCF-7 = assay: p53 transcription/level in MCF-7; assay type: cell-based, human; conditions: MCF-7 cells
Source text: p53 is a unique protein that participates in several physiological processes such as cell metabolism, stem cell maintenance, and cell adhesion. Because p53 is frequently inactivated in cancer cells, the cells are unable to undergo apoptosis. Similarly, activating, or stabilizing p53 aids cancer cells in normalizing p53-controlled physiological processes and increasing apoptotic activity.

[11] = test system: Bcl-2 in breast cancer cell line (MCF-7); assay: Bcl-2 level assay in MCF-7 cells; assay type: cell-based, human
[12] = test system: Bax in breast cancer cell line (MCF-7); assay: Bax level assay in MCF-7 cells; assay type: cell-based, human

EGFR, sequence (P00533 25-1210): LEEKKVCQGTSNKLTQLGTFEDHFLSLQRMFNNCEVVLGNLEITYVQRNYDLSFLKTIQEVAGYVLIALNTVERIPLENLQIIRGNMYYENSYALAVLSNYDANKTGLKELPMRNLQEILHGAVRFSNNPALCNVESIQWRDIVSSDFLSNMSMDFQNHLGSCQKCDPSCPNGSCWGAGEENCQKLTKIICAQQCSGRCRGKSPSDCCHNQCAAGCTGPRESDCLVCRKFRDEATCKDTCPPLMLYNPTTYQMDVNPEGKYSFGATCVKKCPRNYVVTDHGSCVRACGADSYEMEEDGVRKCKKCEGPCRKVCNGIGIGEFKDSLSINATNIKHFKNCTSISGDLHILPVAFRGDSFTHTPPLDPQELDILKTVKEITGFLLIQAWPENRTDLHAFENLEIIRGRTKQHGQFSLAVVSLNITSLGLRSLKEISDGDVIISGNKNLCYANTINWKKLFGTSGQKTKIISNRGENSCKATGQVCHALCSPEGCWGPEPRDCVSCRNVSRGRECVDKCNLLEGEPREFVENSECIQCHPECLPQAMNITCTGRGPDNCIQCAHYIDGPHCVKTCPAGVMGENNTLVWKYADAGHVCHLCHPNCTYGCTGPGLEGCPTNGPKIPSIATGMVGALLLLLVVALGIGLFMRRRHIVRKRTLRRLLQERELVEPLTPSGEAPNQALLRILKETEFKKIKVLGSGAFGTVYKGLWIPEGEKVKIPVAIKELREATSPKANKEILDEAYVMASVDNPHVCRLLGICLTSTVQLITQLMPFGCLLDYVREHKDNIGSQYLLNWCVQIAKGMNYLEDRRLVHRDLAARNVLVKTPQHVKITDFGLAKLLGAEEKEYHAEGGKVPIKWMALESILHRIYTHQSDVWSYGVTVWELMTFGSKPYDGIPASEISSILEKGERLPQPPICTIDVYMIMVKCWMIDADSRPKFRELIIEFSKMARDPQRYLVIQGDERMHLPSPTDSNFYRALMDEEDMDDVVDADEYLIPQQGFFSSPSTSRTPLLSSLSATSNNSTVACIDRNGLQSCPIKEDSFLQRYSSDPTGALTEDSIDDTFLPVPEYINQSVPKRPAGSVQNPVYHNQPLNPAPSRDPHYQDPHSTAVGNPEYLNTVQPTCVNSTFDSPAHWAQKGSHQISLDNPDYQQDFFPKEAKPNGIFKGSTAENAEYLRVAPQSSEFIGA

Row | SMILES | IC50 [1] [nM] | IC50 [2] [nM] | IC50 [3] [nM] | melting point [°C] | IC50 [4] [nM] | IC50 [5] [nM] | IC50 (CDK2 enzyme) [nM] | viability at 4 days, 50 µM [6] [%] | further results
1 | Cc1c(C(=O)NCCc2ccc(N(C)C)cc2)[nH]c2ccc(Cl)cc12 [Compound 5b, 5-Chloro-N-(4-(dimethylamino)phenethyl)-3-methyl-1H-indole-2-carboxamide] | 3200 ± 300 | 2900 ± 300 | 3500 ± 300 | 202 to 204 | 3300 | 3600 ± 300 | – | 87 | –
2 | Cc1c(C(=O)NCCc2ccccc2)[nH]c2ccc(Cl)cc12 [Compound 5a, 5-Chloro-3-methyl-N-phenethyl-1H-indole-2-carboxamide] | 3700 ± 300 | 3200 ± 300 | 3900 ± 300 | 182 to 184 | 3700 | 3900 ± 300 | – | 89 | fold less potent than 5e (mean GI50) [4]: roughly four-fold
3 | Cc1c(C(=O)N2CCN(c3ccccc3)CC2)[nH]c2ccc(Cl)cc12 [Compound 6a, (5-Chloro-3-methyl-1H-indol-2-yl)(4-phenylpiperazin-1-yl)methanone] | 2900 ± 300 | 2600 ± 200 | 2800 ± 200 | 165 to 167 | 2800 | 2900 ± 200 | – | 90 | –
4 | Cc1c(C(=O)N2CCN(c3ccccc3)CC2)[nH]c2cc(Cl)ccc12 [Compound 6b, (6-Chloro-3-methyl-1H-indol-2-yl)(4-phenylpiperazin-1-yl)methanone] | 2500 ± 200 | 2300 ± 200 | 2650 ± 200 | 180 to 182 | 2600 | 2800 ± 200 | – | 91 | –
5 | Cc1c(C(=O)NCCc2ccc(N3CCCCC3)cc2)[nH]c2cc(Cl)ccc12 [Compound 5g, 6-Chloro-3-methyl-N-(4-(piperidin-1-yl)phenethyl)-1H-indole-2-carboxamide] | 4900 ± 500 | 4800 ± 500 | 5200 ± 500 | 218 to 220 | 5000 | 5100 ± 500 | – | 89 | times lower antiproliferative efficacy than 5c ([4]; vs compound 5c): 3 times
6 | Cc1c(C(=O)N2CCN(c3ccccc3)CC2)[nH]c2c(F)cc(F)cc12 [Compound 6c, (5,7-Difluoro-3-methyl-1H-indol-2-yl)(4-phenylpiperazin-1-yl)methanone] | 2200 ± 200 | 2100 ± 200 | 2400 ± 200 | 171 to 173 | 2300 | 2500 ± 200 | – | 89 | –
7 | Cc1c(C(=O)NCCc2ccc(N3CCCCC3)cc2)[nH]c2ccc(Cl)cc12 [Compound 5c, 5-Chloro-3-methyl-N-(4-(piperidin-1-yl)phenethyl)-1H-indole-2-carboxamide] | 1700 ± 200 | 1400 ± 200 | 1800 ± 200 | 216 to 218 | 1700 | 1800 ± 200 | – | 87 | fold less potent than 5e (mean GI50) [4]: at least 1.8 fold; fold reduction of mean GI50 potency vs 5d ([4]; ratio of mean GI50 vs compound 5d): ≥ 1.6 fold
8 | Cc1c(C(=O)NCc2ccccc2)[nH]c2ccc(Cl)cc12 [Compound 7, N-Benzyl-5-chloro-3-methyl-1H-indole-2-carboxamide] | 4100 ± 400 | 4000 ± 400 | 4400 ± 400 | 203 to 205 | 4300 | 4600 ± 400 | – | 91 | –
9 | Cc1c(C(=O)NCCc2ccccc2)[nH]c2cc(Cl)ccc12 [Compound 5f, 6-Chloro-3-methyl-N-phenethyl-1H-indole-2-carboxamide] | 1900 ± 200 | 1700 ± 200 | 2100 ± 200 | 170 to 172 | 1950 | 2100 ± 200 | – | 90 | times more potent than 5a ([4]; vs compound 5a): 1.9 times

Stronger by IC50 [1], values ahead:

Row | IC50 [1] [nM] | IC50 [2] [nM] | IC50 [3] [nM] | melting point [°C] | IC50 [4] [nM] | IC50 [5] [nM] | IC50 (CDK2 enzyme) [nM] | SMILES | viability at 4 days, 50 µM [6] [%] | further results
10 | 1550 ± 200 | 1300 ± 100 | 1600 ± 200 | 185 to 187 | 1500 | 1650 ± 200 | 27 ± 3 | Cc1c(C(=O)NCCc2ccc(N3CCOCC3)cc2)[nH]c2c(Cl)cc(Cl)cc12 [Compound 5i, 5,7-Dichloro-3-methyl-N-(4-morpholinophenethyl)-1H-indole-2-carboxamide] | 90 | IC50 (EGFR): 137 ± 12 nM
11 | 1400 ± 200 | 1200 ± 100 | 1500 ± 200 | 192 to 194 | 1400 | 1500 ± 200 | 19 | Cc1c(C(=O)NCCc2ccc(N3CCCCC3)cc2)[nH]c2c(F)cc(F)cc12 [Compound 5k, 5,7-Difluoro-3-methyl-N-(4-(piperidin-1-yl)phenethyl)-1H-indole-2-carboxamide] | 87 | IC50 (EGFR): 129 ± 11 nM
12 | 1200 ± 100 | 1000 ± 100 | 1300 ± 100 | 198 to 200 | 1200 | 1300 ± 100 | 34 ± 3 | Cc1c(C(=O)NCCc2ccccc2)[nH]c2c(F)cc(F)cc12 [Compound 5j, 5,7-Difluoro-3-methyl-N-phenethyl-1H-indole-2-carboxamide] | 83 | IC50 (EGFR): 98 ± 8 nM
13 | 1000 ± 100 | 900 ± 100 | 1200 ± 100 | 178 to 180 | 1100 | 1200 ± 100 | 11 ± 1 | Cc1c(C(=O)NCCc2ccc(N3CCCCC3)cc2)[nH]c2c(Cl)cc(Cl)cc12 [Compound 5h, 5,7-Dichloro-3-methyl-N-(4-(piperidin-1-yl)phenethyl)-1H-indole-2-carboxamide] | 87 | Caspase-3 Conc [7]: 537.50 ± 5.00 pg/mL; Caspase-3 Fold Change ([7]; vs control untreated cells): 8.20 fold; Cytochrome C Conc [8]: 0.65 ng/mL; Cytochrome C Fold Change ([8]; vs untreated control cells): 13 fold; Caspase-9 Conc [9]: 16.65 ng/mL; Caspase-9 Fold Change ([9]; vs control cells): 17.50 fold; Caspase-8 Conc [10]: 1.88 ng/mL; Caspase-8 Fold Change ([10]; vs control cells): 9.50 fold; IC50 (EGFR): 118 ± 10 nM
14 | 1050 ± 100 | 900 ± 100 | 1100 ± 100 | 210 to 212 | 1050 | 1100 ± 100 | 23 ± 2 | Cc1c(C(=O)NCCc2ccc(N3CCOCC3)cc2)[nH]c2ccc(Cl)cc12 [Compound 5d, 5-Chloro-3-methyl-N-(4-morpholinophenethyl)-1H-indole-2-carboxamide] | 89 | Caspase-3 Conc [7]: 570.00 ± 5.00 pg/mL; Cytochrome C Conc [8]: 0.70 ng/mL; Caspase-9 Conc [9]: 16.90 ng/mL; Caspase-8 Conc [10]: 1.94 ng/mL; p53 Conc (p53 in MCF-7): 1375 pg/mL and 1375 ± 15 pg/mL; Bcl-2 Conc [11]: 0.89 ng/mL; Bax Conc [12]: 290 pg/mL and 289.70 ± 2.50 pg/mL
